The assay concerns the target T1, F508del (Homo sapiens, UniProt P13569, DEL508-508).
T1 construct: expressed in transfected cells
Kind of assay: Protocol 2: FRET membrane potential optical assay (VIPR), identification of correction compounds. The assay is classed as cell-based. The method, boiled down: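 NIH3T3 mouse fibroblasts stably expressing F508del were treated with test compound for 16 hrs at 37° C. in serum-free medium; 27° C. incubation served as positive control. F508del was activated with 10 μM forskolin plus 20 μM genistein in Cl^−-free medium, and Cl^− efflux-driven depolarization was read by DiSBAC2(3)/CC2-DMPE FRET.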

The mark [1] stands for this setting: Table 3, compounds of Table 1 as modulators of CFTR activity, protocol not stated.
[2] abbreviates: F508del CFTR modulator activity, compounds of Table 1, read-out: EC30.

Read-outs that look alike come from different tables or passages of the source. Bounds are passed on as bounds.

T1 sequence (P13569 with tags, fused parts or gaps DEL508-508): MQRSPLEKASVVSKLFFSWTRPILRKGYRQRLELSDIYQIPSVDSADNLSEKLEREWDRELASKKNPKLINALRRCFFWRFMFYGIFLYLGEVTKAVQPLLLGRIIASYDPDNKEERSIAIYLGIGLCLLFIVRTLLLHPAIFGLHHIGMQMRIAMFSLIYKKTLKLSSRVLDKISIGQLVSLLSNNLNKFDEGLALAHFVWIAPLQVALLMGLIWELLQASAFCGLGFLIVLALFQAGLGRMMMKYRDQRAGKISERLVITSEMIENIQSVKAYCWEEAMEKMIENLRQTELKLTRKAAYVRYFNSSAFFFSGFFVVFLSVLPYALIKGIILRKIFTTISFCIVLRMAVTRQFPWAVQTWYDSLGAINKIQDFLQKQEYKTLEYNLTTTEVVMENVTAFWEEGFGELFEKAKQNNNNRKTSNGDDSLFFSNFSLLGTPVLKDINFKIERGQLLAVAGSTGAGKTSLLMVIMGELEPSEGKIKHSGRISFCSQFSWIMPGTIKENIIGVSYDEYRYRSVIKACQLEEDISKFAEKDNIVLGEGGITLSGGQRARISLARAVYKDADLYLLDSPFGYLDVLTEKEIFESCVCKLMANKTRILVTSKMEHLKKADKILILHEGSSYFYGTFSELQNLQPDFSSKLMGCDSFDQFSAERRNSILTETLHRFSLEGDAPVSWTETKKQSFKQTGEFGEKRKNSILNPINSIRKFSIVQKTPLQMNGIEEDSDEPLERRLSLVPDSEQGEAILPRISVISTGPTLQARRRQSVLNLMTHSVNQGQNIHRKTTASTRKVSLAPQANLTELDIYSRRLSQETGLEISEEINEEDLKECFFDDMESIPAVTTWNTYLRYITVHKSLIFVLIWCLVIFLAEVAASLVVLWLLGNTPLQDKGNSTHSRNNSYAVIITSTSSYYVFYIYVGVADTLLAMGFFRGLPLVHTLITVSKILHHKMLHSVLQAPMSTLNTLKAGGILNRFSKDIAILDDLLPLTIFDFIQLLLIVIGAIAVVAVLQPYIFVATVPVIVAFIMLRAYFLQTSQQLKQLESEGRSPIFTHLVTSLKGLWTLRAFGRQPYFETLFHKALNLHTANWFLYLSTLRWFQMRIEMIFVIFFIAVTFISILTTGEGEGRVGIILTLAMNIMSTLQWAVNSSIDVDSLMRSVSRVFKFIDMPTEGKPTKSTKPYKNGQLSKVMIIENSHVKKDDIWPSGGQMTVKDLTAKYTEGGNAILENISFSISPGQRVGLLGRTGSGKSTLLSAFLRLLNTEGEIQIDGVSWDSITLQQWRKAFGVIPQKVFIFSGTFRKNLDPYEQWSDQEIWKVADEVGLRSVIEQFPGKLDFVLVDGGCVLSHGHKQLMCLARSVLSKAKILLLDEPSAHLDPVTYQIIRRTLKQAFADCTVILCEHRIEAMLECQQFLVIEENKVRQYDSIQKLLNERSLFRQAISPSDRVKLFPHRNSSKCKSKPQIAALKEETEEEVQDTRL

`CC1CN(c2nc(-c3cncc(OCC(C)(C)C)n3)ccc2C(=O)NS(=O)(=O)c2cccc(N)n2)C(C)(C)C1` (stereo not drawn) [Compound 779, N-[(6-amino-2-pyridyl)sulfonyl]-6-[6-(2,2-dimethylpropoxy)pyrazin-2-yl]-2-(2,2,4-trimethylpyrrolidin-1-yl)pyridine-3-carboxamide]: under setting [1], the EC30 entry was “+++ (“+++” means <3 uM)”. As to `CC1CN(c2ncc(/C=C/C3CCCCC3)cc2C(=O)NS(=O)(=O)c2cccc(N)n2)C(C)(C)C1` (stereo not drawn) [Compound 2063, N-[(6-amino-2-pyridyl)sulfonyl]-5-[(E)-2-cyclohexylvinyl]-2-(2,2,4-trimethylpyrrolidin-1-yl)pyridine-3-carboxamide], the EC30 under setting [2] was < 3 µM. On to `COc1cccc(S(=O)(=O)NC(=O)c2ccc(C(C)(C)C)nc2-c2ccc(C)cc2)c1` [Compound 327, 6-tert-butyl-N-(3-methoxyphenyl)sulfonyl-2-(p-tolyl)pyridine-3-carboxamide], for which the concentration for an effect of 30% (EC30) entry under setting [1] was “+++ (“+++” means <3 uM)”.

Consider `COc1ncc(-c2ccc(C(=O)NS(=O)(=O)c3cccc(N)n3)c(N3C[C@@H](C)CC3(C)C)n2)cc1C` [Compound 2086, N-[(6-amino-2-pyridyl)sulfonyl]-6-(6-methoxy-5-methyl-3-pyridyl)-2-[(4S)-2,2,4-trimethylpyrrolidin-1-yl]pyridine-3-carboxamide], for which the concentration for an effect of 30% (EC30) under setting [2] is < 3 µM.

Take `Cc1cc(C)c(Cn2nc(C(C)(C)C)nc2C(=O)NS(=O)(=O)c2cccc(N)c2)c(C)c1` [Compound 261, N-(3-aminophenyl)sulfonyl-5-tert-butyl-2-[(2,4,6-trimethylphenyl)methyl]-1,2,4-triazole-3-carboxamide]: the 30% effect concentration (EC30) entry under setting [1] is recorded as “+++ (“+++” means <3 uM)”. Still for that read-out and setting: with `CC(C)COc1cc(F)cc(-c2ccc(C(=O)NS(=O)(=O)c3ccn[nH]3)c(N3CCC(C(F)(F)F)CC3)n2)c1` [Compound 426, 6-(3-fluoro-5-isobutoxy-phenyl)-N-(1H-pyrazol-5-ylsulfonyl)-2-[14-(trifluoromethyl)-1-piperidyl]pyridine-3-carboxamide] the entry was “+++ (“+++” means <3 uM)”; with `COc1ncc(-c2ccc(C(=O)NS(=O)(=O)c3cccc(N)n3)c(Oc3c(C)cc(C)cc3C)n2)cc1F` [Compound 612, N-[(6-amino-2-pyridyl)sulfonyl]-6-(5-fluoro-6-methoxy-3-pyridyl)-2-(2,4,6-trimethylphenoxy)pyridine-3-carboxamide], “+++ (“+++” means <3 uM)”. Consider `C[C@@H]1CN(c2nc(-c3cc(F)c(F)cc3F)ccc2C(=O)NS(=O)(=O)c2cccnc2N)C(C)(C)C1` [Compound 2035, N-[(2-amino-3-pyridyl)sulfonyl]-6-(2,4,5-trifluorophenyl)-2-[(4S)-2,2,4-trimethylpyrrolidin-1-yl]pyridine-3-carboxamide], for which, under setting [2], the EC30 is < 3 µM. As to `Cc1ccc(-n2c(C(=O)NS(=O)(=O)c3cccc(N)n3)cc3cc(C)ccc32)cc1` [Compound 653, N-[(6-amino-2-pyridyl)sulfonyl]-5-methyl-1-(p-tolyl)indole-2-carboxamide], the EC30 result under setting [1] is “+ (“+” means greater than 10 uM)”. Take `CCOc1ccc(-c2ccc(C(=O)NS(=O)(=O)c3ccc[nH]c3=O)c(Oc3ccc(C)cc3C)n2)cc1` [Compound 517, 2-(2,4-dimethylphenoxy)-6-(4-ethoxyphenyl)-N-[(2-oxo-1H-pyridin-3-yl)sulfonyl]pyridine-3-carboxamide]: the concentration for an effect of 30% (EC30) result under setting [1] was “++ (“++” means between 3 uM and 10 uM)”. In the case of `C[C@@H]1CN(c2nc(-c3ccccc3F)ccc2C(=O)NS(=O)(=O)N2CC[C@H](N)C2)C(C)(C)C1` [Compound 2045, N-[(3S)-3-aminopyrrolidin-1-yl]sulfonyl-6-(2-fluorophenyl)-2-[(4S)-2,2,4-trimethylpyrrolidin-1-yl]pyridine-3-carboxamide], the EC30 under setting [2] was in the range of 3 to 10 µM. Still for that read-out and setting: the figure for `CC1CN(c2ncccc2C(=O)NS(=O)(=O)c2cccc(Nc3ccc(-c4ccccc4)cc3)n2)C(C)(C)C1` (stereo not drawn) [Compound 2023, N—[[6-(4-phenylanilino)-2-pyridyl]sulfonyl]-2-(2,2,4-trimethylpyrrolidin-1-yl)pyridine-3-carboxamide] is < 3 µM.

Broadly, the EC30 is the point of the concentration-response curve where the effect stands at 30%.
